Assay results published in patent US4382935A, “Analgesic drug containing a derivative of benzylpiperazine” (Buzas; Andre, priority 1980, dated 1983).
Values joined by “and” are separate entries in the source; they are usually repeats but may differ in a detail not shown here. Equal entries are not always repeated.

Assays:
[1] = system: rat fundus; test: Agonism on the rat fundus; assay type: cell-based; conditions: product under study as agonist
Description: (§1) These interactions are sought on isolated organs which are maintained in a state of survival in a nutrient liquid. The contractions of these organs are recorded on a kymograph by means of an isotonic mechanism.
(§2) An agonist is added to the nutrient liquid bath, either alone or after addition of an antagonist, to increasing concentrations which serve to plot cumulative dose-response curves.
The organ under study is the rat fundus, the nutrient liquid is the Kreps liquid and the agonist is the product under study.

[2] = system: mice; test: Heating-plate test performed on mice (Eddy test); assay type: in vivo; conditions: peroral, one hour before test, plate at 56.5° C; for ED30: Mus musculus, po, 1 h, read-out: DE30 (30% increase in licking time)
Description: This test has been carried out in accordance with the method described by N. B. Eddy (J. Pharmacol: 1932, 45, 339-359).
One hour after the product under study has been administered perorally to batches of twelve mice per dose, the time taken by the mice to lick their front paws is measured, the mice having been placed on a plate heated to a temperature of 56.5° C.
The dose DE30 (which produces a 30% increase in licking time with respect to the reference animals) is calculated on the basis of the dose/effect relation.

[3] = system: mice; test: Antagonism produced by Naloxone in the Siegmund test; assay type: in vivo
Description: (§3) One hour after peroral administration of the product under study to batches of twelve mice per dose, phenylbenzoquinone in solution in a proportion of 0.02% in water containing 5% ethyl alcohol is administered by intraperitoneal injection in a proportion of 0.25 ml per mouse of 20 g.
The dose DE50 (which produces a 50% reduction in the number of contortions with respect to the reference animals) is calculated on the basis of the dose/effect relation. The following results are thus obtained:
This antagonism is sought in the Siegmund test performed on mice with phenylbenzoquinone as described earlier. Naloxone is administered by subcutaneous injection at a fixed dose at the same time as the product under study.

[4] = biological target: morphine-compound cerebral receptors; test: Fixation on morphine-compound cerebral receptors (displacement of tritiated etorphin); assay type: binding; conditions: rat-brain homogenate, 1 mg/ml protein, 30 minutes at 35° C; read-out: CI50 (displacement of tritiated etorphin)
Description: It is sought to determine the affinity of the products under study by means of their capacity for displacement of tritiated etorphin in a rat-brain homogenate (containing 1 mg/ml of protein) over a period of 30 minutes at 35° C. This test consists in determining the value CI50 corresponding to the concentration of products which are capable of inhibiting 50% of the specific radioactive ligand bond.

[5] = biological target: T1, guinea-pig ileum (Cavia porcellus, UniProt P31389); test: Antagonism with respect to histamine on isolated organ; assay type: cell-based; conditions: agonist histamine
T1 construct: the organ on which this action has been studied is the guinea-pig ileum; from tissue; host or cells: isolated guinea-pig ileum
T1 sequence (P31389 whole entry): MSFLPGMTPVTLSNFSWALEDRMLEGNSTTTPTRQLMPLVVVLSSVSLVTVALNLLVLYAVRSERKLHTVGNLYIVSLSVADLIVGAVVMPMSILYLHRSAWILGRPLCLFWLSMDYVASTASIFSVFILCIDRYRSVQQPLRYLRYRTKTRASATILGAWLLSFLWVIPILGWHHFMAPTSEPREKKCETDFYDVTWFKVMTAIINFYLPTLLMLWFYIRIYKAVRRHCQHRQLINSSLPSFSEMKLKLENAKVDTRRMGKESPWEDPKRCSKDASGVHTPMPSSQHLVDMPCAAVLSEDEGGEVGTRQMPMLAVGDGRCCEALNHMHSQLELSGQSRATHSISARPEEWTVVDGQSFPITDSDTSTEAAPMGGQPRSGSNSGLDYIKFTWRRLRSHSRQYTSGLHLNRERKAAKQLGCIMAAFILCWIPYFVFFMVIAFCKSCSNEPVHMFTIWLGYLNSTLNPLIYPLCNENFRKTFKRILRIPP
Description: as §1, §2
In this test, the organ on which this action has been studied is the guinea-pig ileum. The nutrient liquid employed is Tyorode, the agonist is histamine and the antagonist is the product under study.

[6] = Acute toxicity in mice (DL50), peroral; conditions: mouse, in vivo, po, mortality over 48 hours
Description: The acute toxicity is evaluated according to the mortality observed during a period of 48 hours on batches of four mice which have received perorally 100, 200, 400, 800 and 1600 mg/kg of the compound under study.

[7] = system: mice; test: Siegmund test with phenylbenzoquinone in mice; assay type: in vivo; conditions: Mus musculus, po, 1 h, peroral, one hour before phenylbenzoquinone i.p., read-out: DE50 (50% reduction in the number of contortions)
Description: This test has been performed in accordance with the method described by Siegmund, Cadmus and Lu ("A method for evaluating both non-narcotic and narcotic analgesics", Proc. Soc. Exp. Biol. Med., 1957, 95, 729-731).
as §3
The dose DE50 (which produces a 50% reduction in the number of contortions with respect to the reference animals) is calculated on the basis of the dose/effect relation.

[8] = biological target: T2, rat fundus (Rattus norvegicus, UniProt P30994); test: Antagonism with respect to serotonin on isolated organ; assay type: cell-based; conditions: for nature of antagonism with respect to serotonin: rat fundus, agonist serotonin
T2 construct: The organ under study is the rat fundus; from tissue; host or cells: isolated rat fundus
T2 sequence (P30994 whole entry): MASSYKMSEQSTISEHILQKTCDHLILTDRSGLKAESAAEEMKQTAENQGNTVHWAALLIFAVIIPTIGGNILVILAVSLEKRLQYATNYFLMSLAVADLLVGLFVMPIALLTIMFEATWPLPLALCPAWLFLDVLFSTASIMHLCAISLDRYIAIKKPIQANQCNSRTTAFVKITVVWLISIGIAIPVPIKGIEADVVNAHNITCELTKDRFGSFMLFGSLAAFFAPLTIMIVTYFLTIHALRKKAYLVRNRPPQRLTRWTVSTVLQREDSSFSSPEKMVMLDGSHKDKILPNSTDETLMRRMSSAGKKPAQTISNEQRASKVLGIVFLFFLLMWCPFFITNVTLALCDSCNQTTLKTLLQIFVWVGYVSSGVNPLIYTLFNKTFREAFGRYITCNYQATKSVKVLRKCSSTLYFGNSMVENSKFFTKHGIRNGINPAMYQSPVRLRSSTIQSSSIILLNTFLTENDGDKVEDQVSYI
Description: as §1, §2
The organ under study is the rat fundus, the nutrient liquid employed is Kreps liquid, the agonist is serotonin and the antagonist is the product under study.

[9] = system: rat fundus; test: Antagonism produced by harmine on rat fundus; assay type: cell-based; conditions: product as agonist, harmine as antagonist
Description: as §1, §2
The organ studied in this case is the rat fundus the nutrient liquid is the Kreps liquid, the agonist corresponds to the product under study and the antagonist is harmine.

Row | Structure (SMILES) | affinity parameter (pD2) as agonist [1] | ED30 [2] [mg/kg] | DE30 (30% increase in licking time) [2] [micro-moles per kg] | antagonism of analgesic effect by Naloxone (conclusion) [3] | IC50 [4] [µM] | nature of antagonism with respect to histamine [5] | LD50 at 48 h [6] | ED50 [7] | Kb [8] [µM] | nature of antagonism with respect to serotonin [8] | nature of antagonism by harmine with respect to the product [9] | affinity parameter (pA2) with respect to histamine [5]
1 | CC(=O)n1cc(N2CCN(Cc3ccccc3)CC2)c2ccccc21 [known compound, 1-acetyl-3-benzylpiperazino-indole] | 5.4 | 13 | 40 | not antagonized | 103 | non-competitive antagonist | 3000 µmol/kg and 1000 mg/kg | 55 µmol/kg and 18 mg/kg | 4.57 | competitive antagonist | non-competitive antagonism | 
2 | c1ccc(CN2CCN(c3coc4ccccc34)CC2)cc1 [1-(3'-benzofuryl)-4-benzylpiperazine] | 7.0 | 20 | 70 | antagonized by Naloxone | > 300 | competitive antagonist | 5500 µmol/kg and 1600 mg/kg | 22 µmol/kg and 6.5 mg/kg |  | non-competitive antagonist | competitive antagonism | 5.99
